Results published in patent publication US20090317373A1, “Inhibition of the Anti-FVIII Immune Response” (Institut National De La Sante Et De La Recherche Medicale, priority 2005, published 2009).

Key:
[1] = system: human DCs derived from monocytes; experiment: In vitro internalization of fluorescent ligands by human DCs derived from monocytes (flow cytometry); format: cell-based
Method: DCs were prepared from monocytes as described previously (29) with a change in the culture media. Briefly, mononucleated cells were isolated from heparinized leukoplatelet layers (“buffy coats”) from healthy adult donors by adhesion on plastic cell culture dishes in RPMI 1640 medium supplemented with 10% human AB serum, glutamine and antibiotics for 60 minutes. Non-adhering cells were removed by 3 gentle washings with the medium. The adhering monocytes were cultured in X-VIVO 15 medium (Cambrex Bio Sciences, Paris, France) supplemented with 1% human AB serum and antibiotics and in the presence of 500 IU/ml of recombinant human interleukin-4 (rhIL-4), R&D Systems (Lille, France) and 1,000 IU/ml of recombinant human granulocyte macrophage colony-stimulating factor (rhGM-CSF), Immunotools (Friesoythe, Germany). Half of the medium, comprising all the supplements, was replaced every two days. After culture for 5 days, the non-adhering cells and those with little adhesion, corresponding to the fraction enriched in DC, were harvested, washed and used for subsequent experiments.
Whole recombinant human FVIII (1,000 IU, Kogenate, Bayer) or B domain-deleted recombinant human FVIII (FVIII-BDD) (1,000 IU, Refacto, Wyeth) were solubilized in water and dialyzed against bicarbonate buffer (pH 9.2) containing CaCl2, 5 mM at 4° C., followed by coupling to fluorescein 5-isothiocyanate (isomer I, Sigma-Aldrich, Saint Quentin Fallavier, France) for 7-8 hours at 4° C. The labelled FVIII was then dialyzed against RPMI 1640 medium to remove non-coupled FITC. The FVIII-FITC was quantified by the Bradford method using bovine serum albumin as the standard.
The DCs obtained in Example 1 (0.4×10^5 cells/well of a 96-well plate with 100 μl/well) were incubated with various doses (0.029, 0.057, 0.143 and 0.358 μM) of fluorescent conjugated ligands (FVIII-FITC, BDD-FVIII-FITC) obtained in Example 2 in X-VIVO medium for 0, 15, 60 and 120 min at 4° C. or at 37° C. After the incubation period, the cells were washed with cold PBS and analyzed by flow cytometry. To investigate the involvement of receptors in the internalization, the cells were preincubated for 30 min at 37° C. with […] and 1 mg/ml of mannan (Sigma-Aldrich, Saint Quentin Fallavier, France) before the addition of ligands conjugated to fluorescein. In addition to FVIII-FITC and FVIII-BDD-FITC, human α2-macroglobulin-MA (α2M) conjugated to FITC from Biomac (Leipzig, Germany), dextran-FITC (molecular weight 40,000) from Molecular Probes (Leiden, The Netherlands) and Lucifer yellow (LY-CH) from Sigma-Aldrich were used. The investigation of the internalization of FVIII was also carried out in the presence of 20 μg/ml of anti-mannose receptor monoclonal antibody (PAM-1, isotype IgG1) or anti-DC-SIGN monoclonal antibody ((AZN-D1, isotype IgG1) or mouse IgGλ,k conjugated to PE-Cy (BD Pharmingen, France). To investigate whether DC-SIGN is involved in the endocytosis of FVIII, the B lymphocyte line HD-420 transformed by wild-type EBV and transfected with DC-SIGN or not transfected was incubated with various concentrations of FVIII-FITC (0, 0.036, 0.072 and 0.143 μM) for 2 hours in RPMI 1640 medium supplemented with 10% FCS (foetal calf serum) and antibiotics. The analysis was carried out as for the DCs.

[2] = system: D9E9 (T cell clone specific for FVIII); experiment: In vitro activation of FVIII-specific T cell clone D9E9 (IFN-gamma production); format: cell-based, human; details: antigen presented by DCs; IFNγ production; FIG. 4b
Method: After washing, the DCs of Example 1 were resuspended in DMEM:F12 (1:1) medium containing 10% FCS and 10,000 DCs were introduced into each well of a 96-well cell culture plate with a round base. After incubation with mannan (1 mg/ml) in each well for 30 min, the DCs were cultured with 5,000 D9E9 (T cell clone specific for FVIII) in DMEM:F12 (1:1) medium containing 10% FCS and 20 U/ml of rhIL-2 with various doses of whole FVIII or FVIII-BDD (10, 8, 6, 4, 2 μg/ml) for 20 hours at 37° C. Like the D9E9 cells, the LE2E9 and BO2C11 lines of B cells transformed by EBV were cultured in the presence of 10 μg/ml of whole FVIII or FVIII-BDD. The control conditions were maintained in the absence of FVIII, D9E9 or DCs. As a negative control, hrFIX (Benefix, Baxter) was incubated with the cells at isomolar concentrations of FVIII. The supernatants were harvested at the end of the incubation period and tested for their production of IFNγ using the human IFN-γ Duo Set (DY285, R&D Systems) in accordance with the manufacturer's instructions.

[3] = molecular target: T1, binding of CTLD(4-7)-Fc to FVIII-BDD (UniProt P00451+Q61830, DEL763-1656); experiment: ELISA: influence of VWF on binding of CTLD(4-7)-Fc to immobilized FVIII-BDD; details: soluble VWF in a VWF:FVIII ratio excess; FIG. 9
T1 construct: CTLD(4-7)-Fc a gift of Dr L. Martinez-Pomares
T1 sequence (P00451 with tags, fused parts or gaps DEL763-1656 limits assumed): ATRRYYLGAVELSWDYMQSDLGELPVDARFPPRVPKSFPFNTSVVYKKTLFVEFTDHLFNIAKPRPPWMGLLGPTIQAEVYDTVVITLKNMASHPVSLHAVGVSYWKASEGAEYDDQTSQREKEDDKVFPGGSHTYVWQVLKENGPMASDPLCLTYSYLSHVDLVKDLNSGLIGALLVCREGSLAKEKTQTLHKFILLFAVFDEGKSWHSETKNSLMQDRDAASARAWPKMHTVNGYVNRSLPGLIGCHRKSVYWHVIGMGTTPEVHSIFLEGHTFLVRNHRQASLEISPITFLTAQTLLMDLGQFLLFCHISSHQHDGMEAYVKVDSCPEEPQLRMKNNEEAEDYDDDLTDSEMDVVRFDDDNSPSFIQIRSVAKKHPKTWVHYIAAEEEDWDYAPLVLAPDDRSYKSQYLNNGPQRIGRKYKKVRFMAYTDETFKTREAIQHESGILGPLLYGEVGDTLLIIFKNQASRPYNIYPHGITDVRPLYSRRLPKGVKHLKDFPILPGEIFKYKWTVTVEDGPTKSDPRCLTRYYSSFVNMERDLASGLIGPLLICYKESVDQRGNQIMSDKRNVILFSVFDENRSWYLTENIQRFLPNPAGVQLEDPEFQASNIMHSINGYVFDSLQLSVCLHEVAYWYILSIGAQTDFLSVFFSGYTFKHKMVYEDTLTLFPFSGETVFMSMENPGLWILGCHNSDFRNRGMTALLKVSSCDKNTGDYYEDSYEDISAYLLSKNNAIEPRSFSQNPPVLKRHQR
T1 sequence (P00451 1668-2351 limits assumed): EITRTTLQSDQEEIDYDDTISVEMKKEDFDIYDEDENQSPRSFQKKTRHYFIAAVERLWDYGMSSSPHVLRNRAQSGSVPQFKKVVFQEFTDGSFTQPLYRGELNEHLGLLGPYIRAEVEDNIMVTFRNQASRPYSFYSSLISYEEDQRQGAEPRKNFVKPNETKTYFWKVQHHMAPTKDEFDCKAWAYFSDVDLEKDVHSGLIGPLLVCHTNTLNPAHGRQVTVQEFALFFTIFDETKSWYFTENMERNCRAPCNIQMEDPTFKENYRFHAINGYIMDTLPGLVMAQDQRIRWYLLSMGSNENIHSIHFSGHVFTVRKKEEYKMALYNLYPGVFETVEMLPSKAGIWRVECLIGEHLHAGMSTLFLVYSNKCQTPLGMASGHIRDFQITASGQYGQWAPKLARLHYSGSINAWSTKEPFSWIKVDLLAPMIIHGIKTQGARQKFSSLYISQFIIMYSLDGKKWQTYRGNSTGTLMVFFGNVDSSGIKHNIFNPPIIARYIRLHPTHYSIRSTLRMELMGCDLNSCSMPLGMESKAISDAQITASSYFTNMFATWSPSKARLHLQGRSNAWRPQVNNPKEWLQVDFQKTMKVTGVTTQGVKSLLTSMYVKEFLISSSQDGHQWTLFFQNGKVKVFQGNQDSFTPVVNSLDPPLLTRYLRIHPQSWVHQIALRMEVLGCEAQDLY
T1 sequence (Q61830 20-1456): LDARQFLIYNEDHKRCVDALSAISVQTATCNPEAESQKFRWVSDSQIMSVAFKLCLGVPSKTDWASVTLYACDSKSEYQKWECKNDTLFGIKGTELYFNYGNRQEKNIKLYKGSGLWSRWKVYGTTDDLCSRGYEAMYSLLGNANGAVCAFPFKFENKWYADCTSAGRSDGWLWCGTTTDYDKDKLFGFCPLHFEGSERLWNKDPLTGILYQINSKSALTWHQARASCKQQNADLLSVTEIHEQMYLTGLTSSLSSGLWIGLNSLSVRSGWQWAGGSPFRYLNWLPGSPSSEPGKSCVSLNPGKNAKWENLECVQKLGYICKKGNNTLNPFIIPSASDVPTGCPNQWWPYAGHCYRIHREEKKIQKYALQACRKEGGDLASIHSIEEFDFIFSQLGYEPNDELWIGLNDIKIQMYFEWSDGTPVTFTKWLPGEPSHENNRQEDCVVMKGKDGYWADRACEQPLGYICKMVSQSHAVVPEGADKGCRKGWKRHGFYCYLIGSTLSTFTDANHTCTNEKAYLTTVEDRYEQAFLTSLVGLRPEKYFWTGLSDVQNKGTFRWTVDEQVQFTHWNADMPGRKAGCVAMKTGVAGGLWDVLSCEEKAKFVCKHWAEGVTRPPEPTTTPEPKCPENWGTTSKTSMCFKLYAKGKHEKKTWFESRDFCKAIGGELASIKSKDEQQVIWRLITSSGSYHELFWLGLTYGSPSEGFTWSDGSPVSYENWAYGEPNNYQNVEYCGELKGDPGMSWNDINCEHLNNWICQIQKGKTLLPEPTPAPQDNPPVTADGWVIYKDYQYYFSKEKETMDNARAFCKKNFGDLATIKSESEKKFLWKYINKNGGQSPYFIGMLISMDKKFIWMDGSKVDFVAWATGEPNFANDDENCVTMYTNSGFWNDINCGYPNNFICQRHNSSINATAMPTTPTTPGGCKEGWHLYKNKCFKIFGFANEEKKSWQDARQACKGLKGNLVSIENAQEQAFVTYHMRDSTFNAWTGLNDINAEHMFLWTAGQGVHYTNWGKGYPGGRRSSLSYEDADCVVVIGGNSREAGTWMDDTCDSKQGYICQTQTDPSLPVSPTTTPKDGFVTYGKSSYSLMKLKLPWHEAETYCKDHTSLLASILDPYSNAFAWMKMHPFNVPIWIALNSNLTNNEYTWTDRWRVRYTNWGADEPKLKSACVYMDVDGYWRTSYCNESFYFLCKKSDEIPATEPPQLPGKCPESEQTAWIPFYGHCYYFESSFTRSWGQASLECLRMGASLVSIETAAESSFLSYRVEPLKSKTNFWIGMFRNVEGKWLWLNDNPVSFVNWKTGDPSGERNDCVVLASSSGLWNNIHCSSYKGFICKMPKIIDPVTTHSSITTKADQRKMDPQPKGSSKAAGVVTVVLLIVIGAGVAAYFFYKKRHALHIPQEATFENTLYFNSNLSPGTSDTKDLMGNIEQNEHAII
Method: ELISA plates are coated with FVIII-BDD (5.56 μg/ml, 0.033 μM). VWF (0 to 1 μM) is incubated with 10 μg/ml of the construct CTLD(4-7)-Fc for 30 min at room temperature and added to immobilized FVIII-BDD.

[4] = cells preincubated with 5 mM EDTA

O=C[C@H](O)[C@@H](O)[C@@H](O)[C@H](O)CO [D-galactose, reference compound]
reduction of internalization of FVIII ([1]; D-galactose, independently of presence or absence of domain B): did not significantly reduce

O=C(O)CN(CCN(CC(=O)O)CC(=O)O)CC(=O)O [EDTA, reference compound]
inhibition of internalization of FVIII-BDD by immature DCs [1, 4]: 62.4±11.4%
inhibition of internalization of whole FVIII by immature DCs [1, 4]: 58.1±11.1%

FIX: hrFIX (Benefix, Baxter), negative control
activation of D9E9 cells [2]: absence of proliferation

VWF: von Willebrand factor (Willefectin, LFB)
inhibition of interaction of CTLD(4-7)-Fc with immobilized FVIII [3]: 43%

B1: RAP: receptor-associated protein of 38 kD, blocks endocytosis of ligands by LDL receptor family members such as CD91/LRP (protein, UniProt P30533 35-357, looked up)
Alpha-2-macroglobulin …: YSREKNQPKPSPKRESGEEFRMEKLNQLWEKAQRLHLPPVRLAELHADLKIQERDELAWKKLKLDGLDEDGEKEARLIRNLNVILAKYGLDGKKDARQVTSNSLSGTQEDGLDDPRLEKLWHKAKTSGKFSGEELDKLWREFLHHKEKVHEYNVLLETLSRTEEIHENVISPSDLSDIKGSVLHSRHTELKEKLRSINQGLDRLRRVSHQGYSTEAEFEEPRVIDLWDLAQSANLTDKELEAFREELKHFEAKIEKHNHYQKQLEIAHEKLRHAESVGDGERVSRSREKHALLEGRTKELGYTVKKHLQDLSGRISRARHNEL
prevention of endocytosis of FVIII by the DCs ([1]; excess of RAP): did not allow the endocytosis of FVIII by the DCs to be prevented
inhibition of internalization of α2M ([1]; excess of RAP or mannan, FIG. 2f): inhibited completely
